The supplement of paper PMC10307832

Columns and labels:
Test in all cases: relative viability (nuclei count vs DMSO), 5 days (fraction); higher = more cells survive
Carfilzomib + Olaparib = compound: CC(C)C[C@H](NC(=O)[C@H](CCc1ccccc1)NC(=O)CN1CCOCC1)C(=O)N[C@@H](Cc1ccccc1)C(=O)N[C@@H](CC(C)C)C(=O)[C@@]1(C)CO1 [Carfilzomib] + O=C(c1cc(Cc2n[nH]c(=O)c3ccccc23)ccc1F)N1CCN(C(=O)C2CC2)CC1 [Olaparib] (partner 8 µM)
Procedure, shortened: (§1)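 Relative viability equals treated-well nuclei counts divided by vehicle-well nuclei counts. Counts came from 4× images of lung cancer cell lines grown in 1536-well plates for 5 days after pin-tool dosing on the day after seeding. Dosing used one drug alone or a fixed anchor-drug dose plus five library-drug doses (not always all listed) in √10 steps, and values are medians of duplicate plates.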

Olaparib + Phenformin = compound: O=C(c1cc(Cc2n[nH]c(=O)c3ccccc23)ccc1F)N1CCN(C(=O)C2CC2)CC1 [Olaparib] + N=C(N)NC(=N)NCCc1ccccc1 [Phenformin] (partner 250 µM)
Procedure, shortened: as §1

Olaparib + Dasatinib = compound: O=C(c1cc(Cc2n[nH]c(=O)c3ccccc23)ccc1F)N1CCN(C(=O)C2CC2)CC1 [Olaparib] + Cc1nc(Nc2ncc(C(=O)Nc3c(C)cccc3Cl)s2)cc(N2CCN(CCO)CC2)n1 [Dasatinib] (partner 0.075 µM)
Procedure, shortened: as §1

Carfilzomib + Tozasertib = compound: CC(C)C[C@H](NC(=O)[C@H](CCc1ccccc1)NC(=O)CN1CCOCC1)C(=O)N[C@@H](Cc1ccccc1)C(=O)N[C@@H](CC(C)C)C(=O)[C@@]1(C)CO1 [Carfilzomib] + Cc1cc(Nc2cc(N3CCN(C)CC3)nc(Sc3ccc(NC(=O)C4CC4)cc3)n2)n[nH]1 [Tozasertib] (partner 0.1 µM)
Procedure, shortened: as §1

Cell Line | relative viability (Carfilzomib + Olaparib; first compound 0.001 µM) | relative viability (Carfilzomib + Olaparib; first compound 0.003162 µM) | relative viability (Carfilzomib + Olaparib; first compound 0.01 µM) | relative viability (Carfilzomib + Olaparib; first compound 0.03162 µM) | relative viability (Carfilzomib + Olaparib; first compound 0.1 µM) | relative viability (Olaparib + Phenformin; first compound 0.08 µM) | relative viability (Olaparib + Phenformin; first compound 0.253 µM) | relative viability (Olaparib + Phenformin; first compound 2.53 µM) | relative viability (Olaparib + Phenformin; first compound 8 µM) | relative viability (Olaparib + Dasatinib; first compound 0.08 µM) | relative viability (Olaparib + Dasatinib; first compound 0.253 µM) | relative viability (Olaparib + Dasatinib; first compound 2.53 µM) | relative viability (Olaparib + Dasatinib; first compound 8 µM) | relative viability (Carfilzomib + Tozasertib; first compound 0.001 µM) | relative viability (Carfilzomib + Tozasertib; first compound 0.003162 µM) | relative viability (Carfilzomib + Tozasertib; first compound 0.01 µM) | relative viability (Carfilzomib + Tozasertib; first compound 0.03162 µM) | relative viability (Carfilzomib + Tozasertib; first compound 0.1 µM)
LOU-NH91 | 0.923 | 0.992 | 0.871 | 0.34 | 0.287 | 0.885 | 0.663 | 0.716 | 0.769 | 0.6 | 0.473 | 0.525 | 0.589 | 0.742 | 0.801 | 0.635 | 0.289 | 0.246
NCI-H1755 | 0.978 | 0.934 | 0.875 | 0.609 | 0.343 | 0.62 | 0.593 | 0.592 | 0.575 | 0.477 | 0.399 | 0.44 | 0.404 | 0.612 | 0.505 | 0.571 | 0.609 | 0.269
NCI-H647 | 0.641 | 0.644 | 0.0662 | 0.0256 | 0.023 | 0.69 | 0.431 | 0.518 | 0.507 | 0.249 | 0.181 | 0.189 | 0.175 | 0.452 | 0.378 | 0.171 | 0.141 | 0.0292
A549 | 0.344 | 0.301 | 0.405 | 0.0248 | 0.0273 | 0.234 | 0.217 | 0.172 | 0.121 | – | – | – | – | – | – | – | – | –
LCLC-103H | 0.733 | 0.781 | 0.793 | 0.428 | 0.354 | 0.406 | 0.309 | 0.36 | 0.306 | 0.61 | 0.49 | 0.445 | 0.532 | 0.467 | 0.511 | 0.408 | 0.518 | 0.169
NCI-H1437 | 0.629 | 0.666 | 0.645 | 0.419 | 0.171 | 0.301 | 0.27 | 0.279 | 0.296 | 0.548 | 0.399 | 0.441 | 0.39 | 0.403 | 0.424 | 0.4 | 0.433 | 0.252
NCI-H2170 | 0.6 | 0.674 | 0.588 | 0.218 | 0.117 | 0.458 | 0.355 | 0.431 | 0.385 | 0.471 | 0.629 | 0.47 | 0.638 | 0.751 | 0.73 | 0.749 | 0.659 | 0.173
HCC-15 | 0.73 | 0.771 | 0.75 | 0.551 | 0.166 | 0.599 | 0.423 | 0.445 | 0.409 | 0.659 | 0.584 | 0.655 | 0.631 | 0.385 | 0.393 | 0.385 | 0.356 | 0.0753
NCI-H1648 | 1.07 | 0.563 | 0.745 | 0.922 | 0.189 | – | – | – | – | – | – | – | – | – | 0.556 | 0.495 | 0.37 | 0.248
NCI-H661 | 0.731 | 0.806 | 0.725 | 0.684 | 0.312 | 0.219 | 0.278 | 0.273 | 0.253 | 0.801 | 0.769 | 0.7 | 0.715 | 0.367 | 0.313 | 0.364 | 0.373 | 0.255
NCI-H650 | 0.363 | 0.382 | 0.414 | 0.247 | 0.112 | 0.541 | 0.423 | 0.473 | 0.429 | 0.478 | 0.428 | 0.424 | 0.372 | – | 0.9 | 0.745 | 0.588 | 0.157
RERF-LC-KJ | 1.05 | 0.898 | 0.91 | 0.379 | 0.22 | 0.406 | 0.465 | 0.433 | 0.51 | 0.891 | 0.81 | 0.858 | 0.8 | 0.501 | 0.478 | 0.542 | 0.377 | 0.163
SK-LU-1 | 0.421 | 0.54 | 0.438 | 0.198 | 0.147 | 0.612 | 0.473 | 0.569 | 0.365 | 0.197 | 0.159 | 0.181 | 0.161 | 0.342 | 0.371 | 0.343 | 0.0891 | 0.109
NCI-H1792 | – | 0.41 | 0.633 | 0.393 | 0.0411 | 0.284 | 0.224 | 0.273 | 0.194 | 0.816 | 0.689 | 0.841 | 0.62 | – | – | – | – | –
NCI-H1666 | 0.757 | 0.782 | 0.75 | 0.709 | 0.528 | 0.575 | 0.545 | 0.502 | 0.523 | 0.883 | 0.68 | 0.693 | 0.651 | 0.667 | 0.551 | 0.58 | 0.523 | 0.312
SK-MES-1 | 0.709 | 0.847 | 0.775 | 0.276 | 0.146 | 0.745 | 0.56 | 0.628 | 0.484 | 0.41 | 0.323 | 0.431 | 0.228 | 0.939 | 1.07 | 0.998 | 0.725 | 0.136
